# Values of other authors, collected in patent US20260374742A1, “METHODS OF PREPARING CARBAMATE DERIVATIVES” (NodThera Limited, priority 2022, published 2026).
# System: NLRP3 inflammasome
# Conditions: for inhibition of NLRP3 activation (in words): literature report
Compound,inhibition of NLRP3 activation (in words),"concentrations at which NLRP3 activation is inhibited (in words) (literature, concentrations unlikely attainable in vivo)"
CNCCC(Oc1ccc(C(F)(F)F)cc1)c1ccccc1 (stereo not shown) [fluoxetine],impair NLRP3 activation,
"O=[N+]([O-])C=Cc1ccc2c(c1)OCO2 [3,4-methylenedioxy-β-nitrostyrene]",impair NLRP3 activation,
COc1ccc(Cl)cc1C(=O)NCCc1ccc(S(=O)(=O)NC(=O)NC2CCCCC2)cc1 [Glyburide],specific inhibitor of NLRP3 activation,micromolar concentrations
salvianolic acid,suppress NLRP3 activation,
"CC(C)(O)c1coc(S(=O)(=O)NC(=O)Nc2c3c(cc4c2CCC4)CCC3)c1 [CP-456,773]",specific inhibitor of NLRP3 activation,
C=C1C(=O)O[C@H]2[C@H]1CC/C(C)=C/CC[C@@]1(C)O[C@@H]21 [parthenolide],impair NLRP3 activation,
OC(CNCC(O)C1CCc2cc(F)ccc2O1)C1CCc2cc(F)ccc2O1 (stereo not shown) [nebivolol],impair NLRP3 activation,
NC[C@@H]1O[C@H](c2ccccc2)Cc2c1ccc(O)c2O [A-68930],impair NLRP3 activation,
O=c1c(O)c(-c2ccc(O)c(O)c2)oc2cc(O)cc(O)c12 [quercetin],suppress NLRP3 activation,
C[S+]([O-])CCCCN=C=S (stereo not shown) [sulforaphane],suppress NLRP3 activation,
OC[C@H]1O[C@@H](c2ccc(Cl)c(Cc3ccc(O[C@H]4CCOC4)cc3)c2)[C@H](O)[C@@H](O)[C@@H]1O [epigliflozin],impair NLRP3 activation,
Cc1ccc(S(=O)(=O)/C=C/C#N)cc1 [Bay 11-7082],impair NLRP3 activation,
